Like-named read-outs stand apart in the source and are kept apart here.

The target of series [1] is T1, ShHTL7 (Striga hermonthica, UniProt A0A0M3PNA2). Kind of series: biochemical. It counts as binding. The procedure:
We used a sensitive, high-throughput Surface plasmon resonance (SPR) method to examine the binding affinities of the 51 candidates to the recombinant ShHTL7 protein, which was immobilized on the CM5 sensor chip. rac-GR24 was used as a positive control.
The interactions of small molecules with recombinant ShHTL7 were evaluated using the Biacore T200 system (GE Healthcare, USA) at 25 °C[47]. The purified ShHTL7 protein was immobilized on a CM5 sensor chip using the standard amine coupling procedure. […] PBS-P (10 mM phosphate buffer, 2.7 mM KCl, 137 mM NaCl, 0.05% Surfactant P20) containing 0.5% DMSO was used as the running buffer. For the screening experiments, candidates with different structures at 50 μM in the running buffer were injected individually at a flow rate of 30 μL min^−1. For binding affinity studies, compounds with different concentrations in running buffer were used. During the experiments, both the contact and dissociation times were set as 1 min. Data analysis was performed using the Biacore Evaluation Software (T200 Version 2.0). The affinity values (KD) were obtained by the kinetics analysis or the steady-state affinity method.

The subject of series [2] is P. aegyptiaca seeds. Kind of series: P. aegyptiaca seed germination assay. The arrangement: P. aegyptiaca germination EC50 values, source data average: unit not given here; P. aegyptiaca seed germination activity, source data average: unit of the concentration uncertain. It counts as in vivo, Phelipanche aegyptiaca. Particulars: for P. aegyptiaca seed germination activity, source data average: Supplementary Fig. 9b. As to the method: P. aegyptiaca seeds were harvested from Xinjiang province, China in 2017. The seeds were surface sterilized using 1% NaClO solution for 2 min and then washed with distilled water six times. For seed germination assay, about 20 pieces of glass fiber-filter paper discs (15 mm diameter, Whatman GF/B) were placed separately on two layers of filter papers (9 cm diameter, Whatman) in a Petri dish. Five milliliters of distilled water was added to each Petri dish to wet the papers. Approximately 40–90 sterilized seeds were spread onto each glass fiber-filter paper disc. After the seeds were conditioned in the dark at 25 °C for 4 days[48], glass fiber-filter paper discs were blotted dry on filter papers (9 cm) and transferred to the wells of 24-well cell culture plates. The testing compounds were dissolved in acetone and diluted with H2O (VH2O/Vacetone = 999/1) just before use[49]. rac-GR24 and 1‰ acetone solution were used as positive and negative controls, respectively. One hundred microliters of the test solution was added to each well of the plates, and all treatments were performed in three biological repeats. The plates were sealed and incubated in the dark at 25 °C for a week. The experiments were performed at least three times. The germinated seeds were observed by using an electronic magnifier at ×20 magnification.

Series [3] in a line: Chemical reactivity analysis (HPLC, methanol/PBS pH 7.4). The format is physicochemical. The settings on record: for half-life at 0.5 mM: methanol/phosphate-buffered saline mixture, read-out: half-life time (t1/2), source data average (converted); for half-life at 0.5 mM / half-life time (t1/2), source data average: Supplementary Fig. 10 source data, methanol/PBS pH 7.4, 26 °C; for half-life time (t1/2): 1:3 methanol and PBS (10 mM) pH 7.4, HPLC; for reactivity in methanol/PBS: 1:3 methanol and PBS (10 mM) pH 7.4. As to the method: Chemical reactivity is an important factor in the bioactivity of natural and synthetic SLs.
One hundred twenty microliters of sample solution was added to a solution of PBS (10 mM, pH 7.4, 810 μL) and methanol (270 μL). The solution was stirred vigorously for 30 s and then transferred to HPLC vial, and the vial was stored at 26 ± 1 °C. […] The analytical column was Extend-C18 (4.6 mm × 150 mm × 5 μm). The mobile phases were CH3CN and H2O (containing 0.1% HCO2H), VCH3CN:VH2O = 50:50, with a flow rate of 1 mL/min, and an injection volume of 5 μL. The percentage of remaining compounds in the solution was calculated from the peak area. The half-life times (t1/2) of samples were calculated.

Series [4] has as its target T1, ShHTL7. Kind of series: Mass spectrometric analysis of covalent modification of ShHTL7. It counts as biochemical. Particulars: for covalent modification of ShHTL7: MS of compound-treated ShHTL7; for mass increase of compound-treated ShHTL7 protein: Q-TOF MS of full-length protein, modification on His246. The text has this:
This was consistent with the hydrolysis of natural and synthetic SLs, in which, the (2′R)-isomers are more prone to hydrolysis by ShHTL7 than the (2′S)-isomers[26],[40]. […] Based on the above observations, we inferred that (S)-4a may have similar biochemical properties as 2′R-configured SLs. We then examined whether (S)-4a binding, just as for rac-GR24, would result in a covalently linked molecule in ShHTL7 by using Q-TOF mass spectrometry (SYNAPT-G2-Si, Waters company) analysis. […] For (R)-4a and 4g, a weak peak (increase of 95 Da or 94 Da) of similar modification was found, respectively (Fig. 3). A similar modification was not observed in 4h and 4i treated samples (Supplementary Fig. 12b, c). To furtherly identify the specific modification of the increased mass of 94 Da or 95 Da, we incubated (R)-4a, (S)-4a, and 4g with ShHTL7, followed by gel digestion and MS/MS analysis. […] No covalently linked molecule presence was identified in 4h treated ShHTL7 (Supplementary Fig. 12b). We assume that this is due to the fact that the N-CH3 D-lactam modified His246 is more reactive, resulting in quick decomposition of the intermediate.
For LC-MS analysis: a 200 μL reaction solution (100 mM HEPES, 150 mM NaCl, pH 7.0) containing 10, or 400 μM of tested samples 4a, (R)- and (S)-4a, and 4g-i, and 100 μg of recombinant ShHTL7 or its mutants was incubated at 25 °C for 30 min. Subsequently, the solution was filtered and analyzed by a nanoACQUITY UPLC system, which was directly interfaced with an SYNAPT-G2-Si mass spectrometer produced by Waters Company. For LC-MS/MS analysis, the above chemicals treated ShHTL7 reaction solution was subjected to the SDS-PAGE analysis. The corresponding protein band around 30 KDa was excised, respectively, then digested with trypsin (Promega) in NH4HCO3 solution (50 mM) at 37 °C for 24 h[23],[26]–[28]. The covalent modification of C5H5O2/C6H6O on the peptide was analyzed by a Thermo-Dionex Ultimate 3000 HPLC system, which was directly interfaced with a Thermo Orbitrap Fusion Lumos mass spectrometer. MS-MS spectra are generated by pLabel software[53],[54].

The mark [5] stands for this setting: Phelipanche aegyptiaca, read-out: EC50, P. aegyptiaca seed germination.
Where [6] appears, read: Phelipanche aegyptiaca, source data of Fig. 2c and Supplementary Fig. 8b, average of 3, read-out: P. aegyptiaca germination EC50 values, source data average (converted).
Setting [7] is: Supplementary Table 7, binding affinities between ShHTL7 and agonists by SPR, read-out: KD/μM.
The mark [8] stands for this setting: 0.1 (unit uncertain) as printed.

T1 sequence (A0A0M3PNA2 entry or part of it): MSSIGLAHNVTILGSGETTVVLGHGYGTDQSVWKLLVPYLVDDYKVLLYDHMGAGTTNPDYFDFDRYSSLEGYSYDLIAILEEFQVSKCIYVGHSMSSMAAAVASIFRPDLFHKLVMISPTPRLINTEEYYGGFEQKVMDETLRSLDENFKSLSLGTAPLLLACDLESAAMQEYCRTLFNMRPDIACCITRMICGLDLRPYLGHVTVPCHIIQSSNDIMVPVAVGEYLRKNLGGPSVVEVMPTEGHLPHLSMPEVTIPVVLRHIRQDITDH

Consider `CC1=CC(OC(=O)N2CCN(C(=O)COc3ccc(Br)cc3C)CC2)OC1=O` (stereo not shown) [4a], for which the Kd in series [1] amounted to 2.07 ± 0.51 µM. In addition, the EC50 was ~0.0862 nM in series [2] (setting [5]) and 0.0628 nM in series [2] (setting [6]). In addition, the half-life at 0.5 mM in series [3] was 3.38 h.
Turning to `CC1=C[C@H](O/C=C2/C(=O)O[C@@H]3c4ccccc4C[C@H]23)OC1=O` (racemic) [rac-GR24, reference compound], the Kd was 0.93 ± 0.17 µM in series [1] (setting [7]) and ~0.93 µM in series [1] (recombinant ShHTL7 immobilized on CM5 chip, 25 °C, read-out: KD (SPR)). For the same compound, the “germination of P. aegyptiaca seeds, source data average” value in series [2] (10 μM, Fig. 1d source data, average of 3) is reported as 96.5229%. For the same compound, the results for the “P. aegyptiaca seed germination activity, source data average” value in series [2] (setting [8]), in series [2] (1 (unit uncertain) as printed) and in series [2] (10 (unit uncertain) as printed) were 90.7731%, 95.3227% and 96.5229%, respectively. Moreover, the “P. aegyptiaca germination(%)” value in series [2] (Supplementary Table 1, compounds tested at 10 μM, means ± SD, n = 3) came out at 96.4%. Besides, the EC50 in series [2] (in vivo, read-out: EC50, P. aegyptiaca seed germination) turned out to be 0.0485 nM. Also, the “P. aegyptiaca germination EC50 values, source data average” value in series [2] (source data of Fig. 2c and Supplementary Fig. 8b, average of 3) is 10.3597. The “half-life time (t1/2)” value in series [3] was found to be 3.0 h. In addition, the “half-life time (t1/2), source data average” value in series [3] was 3.031 h.
Regarding `CC1=CC(CC(=O)N2CCN(C(=O)COc3ccc(Br)cc3C)CC2)OC1=O` (stereo not shown) [4i], the Kd in series [1] (setting [7]) amounted to 2.93 ± 0.087 µM. Moreover, the “P. aegyptiaca seed germination activity, source data average” value in series [2] (setting [8]) stood at 6.798%; in series [2] (1 (unit uncertain) as printed) it was 17.2667%; in series [2] (10 (unit uncertain) as printed), 39.4856%. For the same compound, the “reactivity in methanol/PBS” value in series [3] is “no apparent hydrolysis was observed in 6 days”. Further, the “half-life time (t1/2), source data average” value in series [3] is >144 h. Besides, the “covalent modification of ShHTL7” value in series [4] is “not observed”.
In the case of `CC1=CC(OC(=O)N2CCN(C(=O)COc3ccc(Br)cc3C)CC2)N(C)C1=O` (stereo not shown) [4h], the Kd in series [1] (setting [7]) was 12.1 ± 0.94 µM. The entries for the “P. aegyptiaca seed germination activity, source data average” value in series [2] (setting [8]), in series [2] (1 (unit uncertain) as printed) and in series [2] (10 (unit uncertain) as printed) were 6.8801%, 41.0534% and 82.4464%, respectively. Also, the “half-life time (t1/2)” value in series [3] is listed as 1.1 h. The “half-life time (t1/2), source data average” value in series [3] stood at 1.095 h. Further, the “covalent modification of ShHTL7” value in series [4] was “not observed”.
Regarding `CC1=CC(OC(=O)N2CCN(C(=O)COc3ccc(Br)cc3C)CC2)CC1=O` (stereo not shown) [4g], the Kd in series [1] came out at 34.8 ± 3.9 µM. Also, the “P. aegyptiaca seed germination activity, source data average” value is 11.4951% in series [2] (setting [8]), 63.9751% in series [2] (1 (unit uncertain) as printed) and 69.9023% in series [2] (10 (unit uncertain) as printed). In addition, the “reactivity in methanol/PBS” value in series [3] is listed as “no apparent hydrolysis was observed in 6 days”. Besides, in series [3], the half-life at 0.5 mM is > 144 h. Further, in series [4], the “mass increase of compound-treated ShHTL7 protein” value (“mass increase” for short) is on record as 94 Da.
`CC1=C[C@H](OC(=O)N2CCN(C(=O)COc3ccc(Br)cc3C)CC2)OC1=O` [(S)-4a]: the Kd in series [1] (setting [7]) was 0.79 ± 0.06 µM. For the same compound, the EC50 in series [2] (setting [5]) was 0.0339 nM; in series [2] (setting [6]), 0.021 nM. Moreover, in series [2] (in vivo), the “fold improved P. aegyptiaca seed germination activity, (S)-4a versus (R)-4a” value is listed as “over 40,000 fold”. Also, in series [3], the half-life at 0.5 mM was 7.71 h. In addition, the “mass increase” value in series [4] was 94 Da.
For `CC1=C[C@@H](OC(=O)N2CCN(C(=O)COc3ccc(Br)cc3C)CC2)OC1=O` [(R)-4a], the Kd in series [1] (setting [7]) stood at 1.69 ± 0.04 µM. The EC50 in series [2] (setting [6]) was 1270 nM. Besides, in series [3], the half-life at 0.5 mM was 6.99 h. Moreover, in series [4], the “mass increase” value came out at 95 Da.

In general, EC50 refers to the concentration giving half of the maximal effect.

For the origin of these results see publication PMC9271048, “Probing strigolactone perception mechanisms with rationally designed small-molecule agonists stimulating germination of root parasitic weeds” (Nature Communications, 2022).
